Assays:
serum HDL cholesterol = assay: in vivo test procedure measuring elevation of HDL cholesterol levels in cholesterol/cholic acid-fed rats; parameters: species or system Male Sprague-Dawley rats; conditions: rats fed diet with 0.25% cholic acid and 1.0% cholesterol, 100 mg/kg/day in diet for 8 days, serum HDL cholesterol by FPLC; for change in vivo at 100 mg/kg/day: Rattus norvegicus, feed or water, 192 h, read-out: HDL Cholesterol Level Increase (%)
Description: Representative compounds according to the present invention were evaluated in an in vivo standard pharmacological test procedure which measured the ability of the compounds to elevate HDL cholesterol levels. The following describes the procedure used and results obtained. Male Sprague-Dawley rats weighing 200-225 g were housed two per cage and fed Purina Rodent Chow Special Mix 5001-S supplemented with 0.25% cholic acid and 1.0% cholesterol and water ad libitum for 8 days. Each test substance was administered to a group of six rats fed the same diet with the test diet mixed in as 0.005-0.1% of the total diet. Body weight and food consumption were recorded prior to diet administration and at termination. The test substances were administered at a dosage of 100 mg/kg/day.
At termination, blood was collected from anesthetized rats and the serum was separated by centrifugation. Total serum cholesterol was assayed using the Sigma Diagnostics enzymatic kit for the determination of cholesterol, Procedure No. 352, modified for use with ninety-six well microtiter plates. After reconstitution with water the reagent contains 300 U/l cholesterol oxidase, 100 U/l cholesterol esterase, 1000 U/l horse radish peroxidase, 0.3 mmoles/l 4-aminoantipyrine and 30.0 mmoles/l p-hydroxybenzene sulfonate in a pH 6.5 buffer. In the reaction, cholesterol was oxidized to produce hydrogen peroxide which was used to form a quinoneimine dye. The concentration of dye formed was measured spectrophotometrically by absorbance at 490 nm after incubation at 25° C. for 30 minutes. The concentration of cholesterol was determined for each serum sample relative to a commercial standard from Sigma.
HDL cholesterol concentrations in serum were determined by separation of lipoprotein classes by fast protein liquid chromatography (FPLC) by a modification of the method of Kieft et al., J. Lipid Res., 32 (1991), 859-866. Using this methodology, […] of serum was injected onto Superose 12 and Superose 6 (available from Pharmacia), in series, with a column buffer of 0.05 M Tris (2-amino-2-hydroxymethyl-1,3-propanediol) and 0.15 M sodium chloride at a flow rate of 0.5 mL/min. The eluted sample was mixed on line with Boehringer-Mannheim cholesterol reagent pumped at 0.2 mL/min. The combined eluents were mixed and incubated on line through a knitted coil (available from Applied Biosciences) maintained at a temperature of 45° C. The eluent was monitored by measuring absorbance at 490 nm and gave a continous absorbance signal proportional to the cholesterol concentration. The relative concentration for each lipoprotein class was calculated as the percent of total absorbance. HDL cholesterol concentration in serum, was calculated as the percent of total cholesterol as determined by FPLC multiplied by the total serum cholesterol concentration.
Test compounds were administered at a dose of 100 mg/kg for 8 days.

Row | Structure (SMILES) | change in vivo at 100 mg/kg/day (serum HDL cholesterol) [%] | melting point | HDL Cholesterol Level Increase (%) (serum HDL cholesterol)
1 | CCc1nnc(NC(=S)Nc2cc(Cl)ccc2C)s1 [Example 14, 1-(5-Chloro-2-methyl-phenyl)-3-(5-ethyl-[1,3,4]thiadiazol-2-yl)-thiourea] | 90 |  | 
2 | Cc1cc(NC(=S)Nc2cc(Cl)ccc2C)sn1 [Example 12, 1-(5-Chloro-2-methyl-phenyl)-3-(3-methyl-isothiazol-5-yl)-thiourea] | 134 | 187 to 188 °C (dec.) | 
3 | Cc1csc(NC(=S)Nc2cc(Cl)ccc2C)n1 [Example 9, 1-(5-Chloro-2-methyl-phenyl)-3-(4-methyl-thiazol-2-yl)-thiourea] | 79 | 188 °C | 
4 | CS/C(=N/c1c(C)nn(C)c1C)Nc1cc(Cl)ccc1C [Example 20, (E)-1-(5-Chloro-2-methyl-phenyl)-2-methyl-3-(1,3,5-trimethyl-1H-pyrazol-4-yl)-isothiourea] | 35 | 134 to 135 °C | 
5 | Cc1coc(NC(=S)Nc2c(C)cccc2Cl)n1 [Example 18, 1-(2-Chloro-6-methyl-phenyl)-3-(4-methyl-oxazol-2-yl)-thiourea] | 193 | 222 °C (dec.) | 
6 | Cc1ccc(Cl)cc1NC(=S)Nc1nccs1 [Example 1, 1-(5-Chloro-2-methyl-phenyl)-3-(thiazol-2-yl)-thiourea] | 65 | 197 to 198 °C | 
7 | Cc1ccc(Cl)cc1NC(=S)Nc1cc[nH]n1 [Example 7, 1-(5-Chloro-2-methyl-phenyl)-3-(1H-pyrazol-3-yl)-thiourea] | 97 | 221 to 222 °C | 
8 | Cc1coc(NC(=S)Nc2ccc(Cl)cc2C)n1 [Example 17, 1-(4-Chloro-2-methyl-phenyl)-3-(4-methyl-oxazol-2-yl)-thiourea] | 134 | 214 °C (dec.) | 
9 | Cc1nnc(NC(=S)Nc2cc(Cl)ccc2C)s1 [Example 5, 1-(5-Chloro-2-methyl-phenyl)-3-(5-methyl-[1,3,4]thiadiazol-2-yl)-thiourea] | 69 |  | 
10 | CCN(C(=Nc1cc(Cl)ccc1C)SC)c1c(C)nn(C)c1C.Cl [Example 21, 3-(5-Chloro-2-methyl-phenyl)-1-ethyl-2-methyl-1-(1,3,5-trimethyl-1H-pyrazol-4-yl)-isothiourea 1:1 salt with hydrochloric acid] |  |  | 29
11 | Cc1nc2cc(NC(=S)Nc3cc(Cl)ccc3C)ccc2s1 [Example 13, 1-(5-Chloro-2-methyl-phenyl)-3-(2-methyl-benzothiazol-5-yl)-thiourea] | 36 | 173 to 174 °C | 
12 | Cc1ccc(Cl)cc1NC(=S)Nc1nc2ccccc2s1 [Example 2, 1-(Benzothiazol-2-yl)-3-(5-chloro-2-methyl-phenyl)-thiourea] | 6 |  | 
13 | Cc1ccc(Cl)cc1NC(=S)Nc1nc2ccc3ccccc3c2s1 [Example 3, 1-(5-Chloro-2-methyl-phenyl)-3-(naphtho[2,1-d]thiazol-2-yl)-thiourea] | 0.3 |  | 
14 | Cc1ccc(Cl)cc1NC(=S)Nc1c(C)nn(C)c1C [Example 8, 1-(5-Chloro-2-methyl-phenyl)-3-(1,3,5-trimethyl-1H-pyrazol-4-yl)-thiourea] | 110 | 176 to 177 °C | 
15 | CCOC(=O)Cc1csc(NC(=S)Nc2cc(Cl)ccc2C)n1 [Example 11, {2-[3-(5-Chloro-2-methyl-phenyl)-thioureido]-thiazol-4-yl}-acetic acid ethyl ester] | 2 | 177 to 179 °C | 
16 | Cc1cccc(Cl)c1NC(=S)Nc1c(C)nn(C)c1C [Example 15, 1-(2-Chloro-6-methyl-phenyl)-3-(1,3,5-trimethyl-1H-pyrazol-4-yl)-thiourea] | 58 | 201 to 202 °C | 
17 | Cc1ccc(Cl)cc1NC(=S)Nc1ccn(C)n1 [Example 6, 1-(5-Chloro-2-methyl-phenyl)-3-(1-methyl-1H-pyrazol-3-yl)-thiourea] | -11 | 217 to 218 °C | 
18 | Cc1ccc(Cl)cc1NC(=S)Nc1nc(C)c(C)s1 [Example 10, 1-(5-Chloro-2-methyl-phenyl)-3-(4,5-dimethyl-thiazol-2-yl)-thiourea] | 41 | 188 to 189 °C | 
19 | Cc1coc(NC(=S)Nc2cc(Cl)ccc2C)n1 [Example 4, 1-(5-Chloro-2-methyl-phenyl)-3-(4-methyl-oxazol-2-yl)-thiourea] | 158 | 207 to 208 °C | 
20 | CCN(C(=S)Nc1cc(Cl)ccc1C)c1c(C)nn(C)c1C [Example 19, 3-(5-Chloro-2-methyl-phenyl)-1-ethyl-1-(1,3,5-trimethyl-1H-pyrazol-4-yl)-thiourea] | 79 | 144 to 145 °C | 
21 | Cc1cc(Cl)ccc1NC(=S)Nc1c(C)nn(C)c1C [Example 16, 1-(4-Chloro-2-methyl-phenyl)-3-(1,3,5-trimethyl-1H-pyrazol-4-yl)-thiourea 0.12 solvate with acetic acid ethyl ester] |  |  | 104

— patent US6936630B2, “Substituted 1-aryl-3-heteroaryl-thioureas and substituted 1-aryl-3-heteroaryl-isothioureas as antiatherosclerotic agents” (Wyeth, priority 1997, dated 2005)
